Experimental data reported in patent publication EP2698384A1, “Detection of synthetic cannabinoids” (priority 2012, dated 2014).

Legend:
Assay type in all cases: binding, sheep
Details in all cases: Cross-reactants at 100 ng/ml; 1000ng/ml; single level of cross reactants
[1] = tested on: Antibody to Immunogen VI
Description: (§1) The wells of an enhanced binding 96 well polystyrene microtiter plate were coated with IgG fraction of antiserum raised to Immunogen VI, diluted in 10mM Tris, pH8.5 (125µl/well). The appropriate antibody coating dilution was determined using standard ELISA checkerboard techniques. The plate was incubated overnight at 4°C, washed 4 times over 10 minutes with Tris buffered saline containing Tween 20 (TBST) and tapped dry. Standard solutions of RCS-4 were prepared in TBST at 0, 0.3125, 0.625, 1.25, 2.5, 5, 10 and 20ng/ml, and 50µl of each was added to the appropriate wells (see figure 1). 75µl of conjugate (appropriate hapten-HRP) diluted in Tris buffer (pH 7.2) containing EDTA, D-mannitol, sucrose, thimerosal and BSA, was added to each of the wells. The appropriate dilution of conjugate was also determined using standard ELISA checkerboard techniques. The plate was incubated at 25°C for 1 hour. Excess unbound conjugate was removed by washing 6 times over a 10 minute period with TBST. 125µl oftetramethylbenzidine (TMB) substrate solution was added to each well of the plate that was then incubated for 20 minutes in the dark at room temperature. The reaction was terminated by addition of 125µl 0.2M H2SO4 to each well. The absorbance was then measured at 450nm using a microtiter plate reader. The data are inputted to a computer program called 'KC Junior'. It is a 4 parameter fit curve and allow the calculatation of concentrations between the standard runs. This program is used to calculate the IC50s by dividing the 0ng/ml OD value by 2 and obtaining the concentration value from the curve for this OD.
(§2) The data set our in Tables 3 and 4 are generated using antibodies raised against the indicated Immunogens in a competitive binding assay with the indicated tracers, using the indicated standards: Table 2
(§3) In order to determine the specificity of the competitive ELISAs, standard solutions of a range of structurally similar synthetic cannabinoids and their metabolites were prepared in TBST. Using the calibration curves generated and employing a single level of cross reactants, these were used to determine the cross-reactivity of each immunoassay with these substances. Table 4: Cross reactivity of the competitive ELISAs for synthetic cannabinoids and their metabolites

[2] = tested on: Antibody to Immunogen V
Description: as §1
In a similar manner to that described above, the wells of a 96-well microtiter plate were coated with the IgG fraction of the antiserum raised to Immunogens IV, V, VII or VIII. Standard solutions (RCS-8 for Immunogen V) were prepared in TBST at 0, 1.25, 2.5, 5, 10, 20, 40 and 80ng/ml and conjugate was employed as detection reagent.
as §2, §3

[3] = tested on: Antibody to Immunogen III
Description: as §1
In a similar manner to that described above, the wells of a 96-well microtiter plate were coated with the IgG fraction of the antiserum raised to Immunogens I, II or III. Standard solutions (JWH-250 for Immunogen III) were applied at 0, 0.625, 1.25, 2.5, 5, 10, 20 and 40ng/ml and conjugate was employed as detection reagent.
as §2, §3

CCCCCn1c(O)c(C(=O)c2cccc3ccccc23)c2ccccc21
%B/B0 [1]: 101.92%
%B/B0 [2]: 98.82%
%B/B0 [3]: 97.61%

CCCCn1c(O)c(C(=O)c2cccc3ccccc23)c2ccccc21
%B/B0 [1]: 89.23%
%B/B0 [2]: 91.80%
%B/B0 [3]: 97.53%

CCCCCn1cc(C(=O)c2cccc3ccccc23)c2c(O)cccc21
%B/B0 [1]: 92.00%
%B/B0 [2]: 83.42%
%B/B0 [3]: 82.22%

CCCCn1cc(C(=O)c2cccc3ccccc23)c2c(O)cccc21
%B/B0 [1]: 84.39%
%B/B0 [2]: 76.09%
%B/B0 [3]: 84.57%

CCCCCn1cc(C(=O)c2cccc3ccccc23)c2cc(O)ccc21
%B/B0 [1]: 95.94%
%B/B0 [2]: 88.70%
%B/B0 [3]: 96.24%

CCCCn1cc(C(=O)c2cccc3ccccc23)c2cc(O)ccc21
%B/B0 [1]: 85.96%
%B/B0 [2]: 82.86%
%B/B0 [3]: 95.65%

CCCCCn1cc(C(=O)c2cccc3ccccc23)c2ccc(O)cc21
%B/B0 [1]: 91.26%
%B/B0 [2]: 75.65%
%B/B0 [3]: 92.91%

CCCCn1cc(C(=O)c2cccc3ccccc23)c2ccc(O)cc21
%B/B0 [1]: 84.50%
%B/B0 [2]: 68.70%
%B/B0 [3]: 94.60%

CCCCCn1cc(C(=O)c2cccc3ccccc23)c2cccc(O)c21
%B/B0 [1]: 91.71%
%B/B0 [2]: 80.99%
%B/B0 [3]: 97.89%

CCCCn1cc(C(=O)c2cccc3ccccc23)c2cccc(O)c21
%B/B0 [1]: 81.62%
%B/B0 [2]: 73.04%
%B/B0 [3]: 95.81%

CCCCCCCC(C)(C)c1ccc(C2CCCC(O)C2)c(O)c1 (stereo not drawn)
%B/B0 [1]: 100.84%
%B/B0 [2]: 86.41%
%B/B0 [3]: 95.39%

CCCCCCn1cc(C(=O)c2cccc3ccccc23)c2cc(O)ccc21
%B/B0 [1]: 89.29%
%B/B0 [2]: 79.13%
%B/B0 [3]: 95.38%

CCCCn1cc(C(=O)c2ccc(OC)cc2)c2ccccc21
%B/B0 [1]: 4.40%
%B/B0 [2]: 76.87%
%B/B0 [3]: 62.80%

CC(O)CCCn1cc(C(=O)c2cccc3ccccc23)c2ccccc21 (racemic)
%B/B0 [1]: 76.16%
%B/B0 [2]: 75.59%
%B/B0 [3]: 86.69%

CCCCCCC(C)(C)c1ccc([C@@H]2C[C@H](O)CC[C@H]2CCCO)c(O)c1 (racemic) [((+-)-CP 55,940)]
%B/B0 [1]: 98.86%
%B/B0 [2]: 80.97%
%B/B0 [3]: 93.49%

CCCCCCC(C)(C)c1ccc([C@H]2CCC[C@@H](O)C2)c(O)c1 (racemic) [CP-49,497-C7 ((+-) CP 47,497)]
%B/B0 [1]: 95.90%
%B/B0 [2]: 69.53%
%B/B0 [3]: 96.91%

CC(F)CCCn1cc(C(=O)c2cccc3ccccc23)c2ccccc21 (single isomer, unassigned) [AM-2201 N-(4-fluoropentyl) isomer]
%B/B0 [1]: 71.98%
%B/B0 [2]: 52.90%
%B/B0 [3]: 68.00%

CC(C)C(C)n1cc(C(=O)c2cccc3ccccc23)c2ccccc21 (single isomer, unassigned) [JWH 018 N-(1,2-dimethylpropyl) isomer]
%B/B0 [1]: 83.71%
%B/B0 [2]: 74.41%
%B/B0 [3]: 90.17%

CCCC(C)n1cc(C(=O)c2cccc3ccccc23)c2ccccc21 (single isomer, unassigned) [JWH-018 N-(1-methylbutyl) isomer]
%B/B0 [1]: 85.57%
%B/B0 [2]: 76.65%
%B/B0 [3]: 87.31%

CCC(C)Cn1cc(C(=O)c2cccc3ccccc23)c2ccccc21 (single isomer, unassigned) [JWH-018 N-(2-methylbutyl) isomer (JWH-073 2-methylbutyl homologue)]
%B/B0 [1]: 80.10%
%B/B0 [2]: 69.13%
%B/B0 [3]: 92.91%

O=C(O)Cc1c[nH]c2ccc(O)cc12 [5-hydroxyindole-3-acetic acid (5-HIAA), 5-hydroxyindole-3-acetic acid]
%B/B0 [1]: 95.75%
%B/B0 [2]: 92.46%
%B/B0 [3]: 90.54%

OCCc1c[nH]c2ccc(O)cc12 [5-hydroxytryptophol]
%B/B0 [1]: 95.67%
%B/B0 [2]: 90.61%
%B/B0 [3]: 85.39%
